Source: patent US10301320B2, “Compositions and methods of modulating 15-PGDH activity” (CASE WESTERN RESERVE UNIVERSITY, priority 2012, dated 2019)
“Also recorded” adds a separate entry of the source. Like-named read-outs stand apart in the source and are kept apart here.

Key:
[1] = system: 15-PGDH-luciferase fusion reporter in V9m, LS174T and V503 cell lines; experiment: 15-PGDH-luciferase fusion gene reporter induction in three colon cancer cell lines (stated jointly); assay type: cell-based
[2] = biological target: recombinant 15-PGDH protein (Homo sapiens (Human), UniProt P15428); experiment: Inhibition of enzymatic activity of recombinant 15-PGDH in vitro; assay type: biochemical; settings: for inhibition at […]: read-out: Enzyme inhibition % ([…]), recombinant 15-PGDH, […] compound;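 as to all read-outs here: activity of recombinant human 15-PGDH assayed in vitro using PGE2 as the substrate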
Sequence of recombinant 15-PGDH protein (P15428 whole entry): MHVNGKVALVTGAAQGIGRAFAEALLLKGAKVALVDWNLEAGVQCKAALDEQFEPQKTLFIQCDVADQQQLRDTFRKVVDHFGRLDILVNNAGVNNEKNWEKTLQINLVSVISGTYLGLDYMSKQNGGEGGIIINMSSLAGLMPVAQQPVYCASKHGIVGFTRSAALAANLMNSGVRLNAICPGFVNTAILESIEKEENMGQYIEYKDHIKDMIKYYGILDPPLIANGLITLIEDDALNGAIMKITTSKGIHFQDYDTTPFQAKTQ

[3] = Metabolic stability with murine liver S9; assay type: in vitro ADME
Description: SW054384 (2 mM in DMSO) was incubated with Murine S9 (Lot KWB) fraction and Phase I (NADPH Regenerating System) cofactors for 0-240 minutes. Reactions were quenched with a 1 mL (1:1) of MeOH/(+)IS/0.2% Formic Acid, vortexed for 15 seconds, incubated at RT for 10 minutes and spun for 5 minutes at 2400 rpms. […] Supernatant (800 μL) was transferred to an HPLC vial (w/out insert) and analyzed by HPLC/MS. A: dH2O+0.1% FA B: MeOH+0.1% FA
SW125991 (2 mM in DMSO) was incubated with Murine S9 (Lot KWB) fraction and Phase I (NADPH Regenerating System) cofactors for 0-240 minutes. Reactions were quenched with 1 mL (1:1) of methanol containing 0.2% formic acid and 100 ng/ml IS (IS final conc.=50 ng/ml). Samples were vortexed for 15 seconds, incubated at RT for 10 minutes and spun for 5 minutes at 2400 rpm. […] Supernatant (800 μL) was transferred to an HPLC vial (w/out insert). Analyzed by Qtrap 3200 mass spectrometer.

A549 cells [4] = experiment: PGE2 levels in medium of IL1-beta stimulated A549 cells; assay type: cell-based; settings: IL1-beta stimulated A549 cells
A549 cells [5] = experiment: Cellular toxicity on A549 cells (CellTiter-Glo, cell numbers); assay type: cell-based; settings: 24 hours; up to 10 uM in FIG. 38
Description: Time to inhibition refers to the time needed to inhibit the generation of NADH by 15-PGDH from the moment with drug is added into the reaction mix. Delta™ refers to the shift in melting temperature of recombinant 15-PGDH in the presence of drug (with cofactor NADH also present). Concentration of Full Cell Line Reporter Induction refers to the concentration of drug that needs to be added to reporter cell line to achieve maximal induction of the 15-PGDH-luciferase gene fusion reporter cassette, as measured by luciferase assays. Hepatocyte stability refers to the half-life of compound in the presence of hepatocytes in culture. Toxicity refers to the concentration of compound needed to decrease cell numbers in a cell culture assay.
FIGS. 38(A-C) show assays of cellular toxicity on A549 cells at 24 hours of 15-PGDH inhibitors as assayed by CellTiter-Glo measurement.
FIGS. 84(A-C) show at left (84A) activity in lowering PGE2 levels in media of A549 cells that are stimulated to produce PGE2 by treatment with IL1-beta.

[6] = system: wild-type mouse bone marrow; experiment: Hematopoietic colonies from bone marrow treated ex vivo; assay type: cell-based; settings: 1 uM, ex vivo on ice for 2 hours; compared with SW033291
From the text: Treated marrow is again then plated into methylcellulose for counting of hematopoietic colonies.

Row | inhibition at […] ([2]; read-out: Enzyme inhibition % (2.5 μM)) | inhibition at […] ([2]; read-out: Enzyme inhibition % (7.5 μM)) | Structure (SMILES) | Induction of 15-PGDH-luciferase reporter, in words [1] | Inhibition of recombinant 15-PGDH, in words [2] | Metabolic stability, in words [3] | Effect on PGE2 levels in medium, in words (A549 cells [4]) | Toxicity, CellTiter-Glo (A549 cells [5]) | Increase in bone marrow derived colonies, in words [6]
1 | 11.6% | 31.6% | COc1ccc(OC)c(N(CC(=O)N2CCOCC2)S(=O)(=O)c2ccccc2)c1 [SW125991] | retains activity in induction of the 15-PGDH-luciferase reporter assay; also recorded: active in inducing the 15-PGDH-luciferase reporter | less inhibition of 15-PGDH at high compound concentration; also recorded: lesser inhibitory activity at high concentration | marked improvement in metabolic stability | show activity in lowering PGE2 | no toxicity | –
2 | – | – | CCCCC(C)(C)[C@H](O)/C=C/[C@H]1[C@H](O)CC(=O)[C@@H]1C/C=C\CCCC(=O)O [dmPGE2, 16,16-dimethyl PGE2] | – | – | – | – | – | slightly greater increase
